The values that follow come from patent publication US20010014699A1, “Benflumetol derivatives, intermediates thereof and their use against parasitical protozoa and trematodes” (priority 1998, published 2001).

Structures are written as SMILES. Where two headings read alike, the source gives them in different places.

Series [1] has as its system Plasmodium falciparum isolates. The series is described as follows: WHO Standard Microtest, inhibition of schizont maturation in vitro. It is filed as cell-based. The following applies: for power ratio (PR) between benflumetol and the compound: Litchfield & Wilcoxon comparison; for efficacy compared with benflumetol (in words): Plasmodium falciparum in vitro; for inhibition at 0.003 µM: 3.0 nmol/l; for inhibition at 0.01 µM: 10.0 nmol/l; for inhibition at 0.03 µM: 30.0 nmol/l; for inhibition at 0.1 µM: 100.0 nmol/l; for inhibition at 0.3 µM: 300.0 nmol/l; for inhibition at 1 µM: 1000.0 nmol/l; for inhibition at 3 µM: 3000.0 nmol/l; for EC50: probit analysis, 95% confidence limits. The procedure: The study is carried out in Mae Sot, a province in north-west Thailand close to Myanmar. […] The test for efficacy is carried out with blood samples obtained by finger pricks (in accordance with the WHO Standard Microtest Method for studying the inhibition of schizont maturation, see Wemsdorfer, W. H., and Payne, D. (1988), Drug Sensitivity Tests. In: Wemsdorfer, W. H., and McGregor, I. A. (Editors), Malaria: Principles and practice of malariology; Churchill Livingstone, Edinburgh). The tests are carried out in parallel with benflumetol and the 2-alkylamino-1-[2,7-dichloro-9-(4-chlorobenzylidene]-9H-fluoren-4-yl)ethanols in concentrations between 3 and 3000 nmol/l in blood medium mixture (BMM) using materials from the WHO Standard Test Kit supplied by the WHO Regional Office for the Western Pacific, Manila, except for the predosed microtitre plates, which are prepared in the laboratory of the institute of Specific Prophylaxis and Tropical Medicine, University of Vienna, Austria.
The procedure for determining parasitaemia before incubation follows the WHO Standard Method (WHO (1991), Basic malaria microscopy. Part I; WHO, Geneva). The schizont titres are determined as described in Wemsdorfer and Payne (1988) (see above).
The statistical analysis of the data was carried out according to log-concentration/response probit analysis (Litchfield & Wilcoxon (1949), J. Exp. Pharmacol. 89, 99-113). This method is based on the least-squares procedure and is the most widely accepted method for the analysis of dose-response studies. A computer adaptation of the method (Wernsdorfer & Wernsdorfer, Mitteilungen der Österreichischen Gesellschaft für Tropenmedizin und Parasitologie 17, 221-228) is used for data processing.

For series [2] the following is noted: cited from earlier work.
For series [3] the following is noted: cited from earlier work. This is another data set of the same source.
For series [4] the following is noted: taken with foods having a high fat content; cited from earlier work.
Setting [5] is: Plasmodium falciparum, 34-isolate test series (Examples 6.2 and 6.3).
[6] abbreviates: Plasmodium falciparum, 34-isolate test series (Examples 6.2 and 6.3), read-out: EC50: mean value.
Where [7] appears, read: Plasmodium falciparum, 58 isolates (Example 6.1).

For `CNCC(O)c1cc(Cl)cc2c1-c1ccc(Cl)cc1C2=Cc1ccc(Cl)cc1` (stereo not shown) [5a, 2-Methylamino-1-[2,7-dichloro-9-(4-chlorobenzylidene)-9H-fluoren-4yl]ethanol], in series [1] (34 isolates), the “EC99 of the compound as fraction of that for benflumetol” value was “about one fifth”; the “concentration at which none of the isolates shows schizont maturation” value (shortened to “concentration at which none”) was determined as 1000 nmol/L; the “power ratio (PR) between benflumetol and the compound” value is 2.8898. Further, the “efficacy compared with benflumetol (in words)” value in series [1] is “about four times as effective as benflumetol”. In addition, in series [1] (setting [5]), at 0.003 µM the inhibition was 13.1%, the inhibition (commonly how much of the control response was suppressed) at 0.01 µM was found to be 51.9%, at 0.03 µM the inhibition was 83.1% and the inhibition at 0.1 µM was found to be 95.8%. For the same compound, in series [1] (setting [5]), at 0.3 µM the inhibition was 97.1%, the inhibition at 1 µM was found to be 100% and the inhibition at 3 µM turned out to be 100%. Also, the EC50 (usually the concentration that produces a half-maximal response) in series [1] (setting [6]) came to 10.5 nM. In series [1] (at 100 nml/l, 34 isolates), this compound had an isolates completely inhibited of 96%.

For the compound `CCCCCNCC(O)c1cc(Cl)cc2c1-c1ccc(Cl)cc1C2=Cc1ccc(Cl)cc1` (stereo not shown) [5c, 2-n-Pentylamino-1-[2,7-dichloro-9-(4-chlorobenzylidene)-9H-fluoren-4yl]ethanol], in series [1] (34 isolates), the “EC99 of the compound, times lower than that for benflumetol” value is given as “about 4 times”; the “concentration at which none” value is 3000 nmol/L; the “power ratio (PR) between benflumetol and the compound” value is given as 2.0724. In addition, the “efficacy compared with benflumetol (in words)” value in series [1] is on record as “about five times as effective as benflumetol”. Besides, in series [1] (setting [5]), the inhibition at 0.003 µM came out at 6.83%, 0.01 µM produced 36.4% inhibition, the inhibition at 0.03 µM was 81.2% and 0.1 µM produced 94.8% inhibition. Moreover, in series [1] (setting [5]), the inhibition at 0.3 µM turned out to be 97%, 1 µM produced 99.6% inhibition and the inhibition at 3 µM is 100%. Moreover, in series [1] (setting [6]), the EC50 came to 14.4 nM. In series [1] (at 100 nml/l, 34 isolates), this compound registered an isolates completely inhibited of 95%.

As to `CCN(CC)CCCC(C)Nc1ccnc2cc(Cl)ccc12` (stereo not shown) [Chloroquine], in series [2] (in vivo), the “half-life (in words)” value is reported as “very long half-life”.

On to `CO[C@H]1O[C@@H]2O[C@@]3(C)CC[C@H]4[C@H](C)CC[C@@H]([C@H]1C)[C@@]24OO3` [artemether, [3R-(3α, 5αβ, 6β, 8αβ, 9α, 10α, 12β,-12aR)]-decahydro-10-methoxy-3,6,9-trimethyl-3,12-epoxy-12H-pyrano[4,3-j]-1,2-benzodioxepin], for which the half-life (in general, the time in which the quantity being followed falls by half) in series [2] (in plasma) is 2 h.

With `CCCCN(CCCC)CC(O)c1cc(Cl)cc2c1-c1ccc(Cl)cc1C2=Cc1ccc(Cl)cc1` (stereo not shown) [benflumetol, 2-(di-n-butylamino)-1-[2,7-dichloro-9-(4-chlorobenzylidene)-9H-fluoren-4-yl]ethanol], the “concentration at which none” value in series [1] (34 isolates) is on record as “above 3000 nmol/l”. Further, in series [1] (58 isolates), the “concentration at which none” value is recorded as “above 300 nmol/l”. In addition, in series [1] (setting [5]), the inhibition at 0.003 µM is 7.16%, the inhibition at 0.01 µM was determined as 18.4%, the inhibition at 0.03 µM stood at 42.8% and the inhibition at 0.1 µM was 90.7%. In series [1] (setting [5]), this compound came in with an inhibition at 0.3 µM of 96.2%, an inhibition at 1 µM of 99.9% and an inhibition at 3 µM of 100%. In series [1] (setting [7]), this compound registered an inhibition at 0.003 µM of 7.14%, an inhibition at 0.01 µM of 20.4%, an inhibition at 0.03 µM of 47.2% and an inhibition at 0.1 µM of 90.7%. In series [1] (setting [7]), this compound registered an inhibition at 0.3 µM of 99.8%, an inhibition at 1 µM of 100% and an inhibition at 3 µM of 100%. In series [1] (setting [6]), the EC50 came to 28 nM. Besides, in series [1] (Plasmodium falciparum, read-out: EC50: mean value (50% inhibition versus controls not given active substance), 58 isolates (Example 6.1)), the EC50 was 24.4 nM. This compound came in with an isolates completely inhibited in series [1] (at 300 nmol/l, 34 isolates) of 96%. This compound also came in with an isolates completely inhibited in series [1] (at 300 nmol/l, 58 isolates) of 97%. The EC50 in series [1] (read-out: EC50: mean value (50% inhibition versus controls not given active substance), 58 isolates (Example 6.1)) came to 24.4 nM. The plasma half-life in series [2] (in patients) is 96 to 140 h. Also, in series [3], the “solubility (in words)” value is recorded as “not very good”. Also, the “absorption with foods having a high fat content, times higher than in the absence of such fatty foods” value in series [4] is “up to 16 times”.
